Values quoted from earlier work, collected in patent US20100035755A1, “METHOD OF CONTROLLING WEEDS IN A TURF GRASS BY USING SULFONYLUREA COMPOUNDS” (Moghu Research Center Ltd., priority 2008, published 2010).
Where two headings read alike, the source gives them in different places.

Tests used:
[1] = test system: cool season turf grass; details: cited from earlier work
[2] = test system: warm season turf grass; details: cited from earlier work
[3] = test system: Poa annua; details: background statement on existing herbicides; cited from earlier work
[4] = background statement, creeping bentgrass, Kentucky bluegrass
[5] = background statement, zoysiagrass, Burmudagrass

| SMILES | safety to cool season turf grass [1, 4] | safety to warm season turf grass [2, 5] | controlling Poa annua [3] | safety to cool season turf grass ([1]; in vivo) | safety to warm season turf grass ([2]; in vivo) |
| --- | --- | --- | --- | --- | --- |
| COc1cc(OC)nc(NC(=O)NS(=O)(=O)c2ncccc2OCC(F)(F)F)n1 [R. 2, Trifloxysulfuron] | no safety | have a safety | – | – | – |
| COC(=O)c1c(Cl)nn(C)c1S(=O)(=O)NC(=O)Nc1nc(OC)cc(OC)n1 [R. 3, Halosulfuron-methyl] | safe | safe | ineffective | – | – |
| COc1cc(OC)nc(NC(=O)NS(=O)(=O)Nc2ccccc2C(=O)C2CC2)n1 [R. 4, Cyclosulfamuron] | – | – | ineffective | safe | safe |
